# Data taken from patent US12673915B2, “Precursor compound of hexahydro-beta-acid component compound, feed composition and use thereof” (WISORIG TECHNOLOGIES PTE. LIMITED, priority 2020, dated 2026).
# Assays:
# [1] = Photostability testing under illumination of 4500 Lx of ingredient and 1% premix (HPLC); type: physicochemical; settings: for Residual amount of active ingredient: 4500 Lx
# From the text: (§1) Preparation of a sample of 1% premix of an ingredient: 1 g of an ingredient was respectively weighed out and evenly mixed with 99 g of corncob meal in a mixer to give a sample of 1% premix of an ingredient for testing.
# Photostability testing: The samples of an ingredient and 1% premix thereof were respectively spread in petri dishes to form thin layers of <5 mm, and kept under an illumination of 4500 Lx. Three replications for a sample were sampled in parallel on day 5 and day 10 for HPLC analysis.
# (§2) 25.0 mg of an ingredient was accurately weighed out and dissolved in an appropriate amount of methanol by ultrasonication. The solution was then transferred to a volumetric flask and diluted to 25 mL with methanol to give a stock solution. The samples from the stock solution were diluted with methanol respectively to a concentration of 100 ppm, 500 ppm, and 1000 ppm of work solution, and then the working solutions were filtered by 0.22 μm organic membranes. Between the concentration of a sample and the response value of HPLC peak area thereof, the linearity was adjusted and detected to give a standard curve.
# (§3) 2.3: Preparation of Sample Solution 25.0 mg of an ingredient and 2.0000 g of a sample of 1% premix thereof were respectively accurately weighed out, and dissolved in 25 mL of methanol by ultrasonication for 10 minutes. The resulting solutions were filtered by organic membranes and then analyzed by HPLC. 2.4: Testing Conditions for HPLC • Column: Symmetry Cis column (Waters; 250 mm*4.6 mm, 5 μm). • Mobile phase: 0.02% phosphoric acid:methanol=5:95 (v:v). • Wavelength: 235 nm. • Temperature of the Column: 25° C. • Injection volume: 10 μL. • Flow rate: 1 mL/min. 3: Results
# [2] = system: Duroc×Landrace×Yorkshire cross-bred bacon-type piglets; assay: Effect on the production performance of hogs (14-day feeding trial); type: in vivo; settings: 14 days, piglets
# From the text: 480 67-day-old Duroc×Landrace×Yorkshire cross-bred bacon-type piglets with similar body weight, were randomly divided into 16 groups, with 3 replications per group, 10 piglets per replication and equal amounts of males and females. The pig pen and tools were sterilized before the trial. In the trial, the piglets were kept in separate regions in the same pig pen under the same feeding and management conditions, were given a free hand with the feed and the water, and were fed twice a day. The groups were known as control group (group 1) and test groups 2 to 16. The piglets of the control group were fed with basal formula feed only, while those of the test groups 2 to 16 were respectively fed with basal formula feed mixed with different additives, wherein the active ingredient of the additives was a hexahydro-β-acid compound or a prodrug of a hexahydro-β-acid compound provide herein, and the content thereof in the feed was 5 or 25 ppm as shown in Table 4.
# The trial lasted for 14 days. During the trial, each test group was not fed with other antioxidants or growth enhancers. On the 14th day, each test group was fed with no feed but water for 12 hours, and the piglets of each replication as one unit were weighed to calculate the average daily feed intake (ADFI, g/d per piglet), the average daily weight gain (ADG, g/d per piglet), and the feed conversion ratio (FCR). Average daily feed intake=(Total weight of provided feed−Weight of residual feed)/(Days of the trial×Number of piglets in each replicate) Average daily weight gain=(final average body weight−initial average body weight)/Days of the trial Feed conversion ratio=average daily feed intake/average daily weight gain
# yellow broilers = assay: Effect on the production performance of broilers (30-day feeding trial); type: in vivo; settings: for ADFI (average daily feed intake) / ADG (average daily weight gain) / FCR (feed conversion ratio): 30 days, broilers; for effects on the production performance of broilers compared with hexahydro-colupulone (in words): in vivo
# From the text: Single-factor was used to conduct the trial. 540 1-day-old yellow broilers with a similar average body weight of 50 g were randomly divided into 6 groups, with 6 replicates per group, equal amount of males and females and 15 yellow broilers per replicate. The chicken house and tools were sterilized before the trial. During the trial, the broilers were kept in separate regions in the same chicken house under the same feeding and management conditions. During the trial, each test group was fed with basal formula feed consisting of corn and soybean and not fed with other antioxidants or growth enhancers. The groups were known as control group (group 1) and test groups 2 to 6, wherein the control group was fed with basal formula feed only, while the test groups 2 to 6 were fed with basal formula feeds respectively mixed with hexahydro-colupulone, hexahydro-colupulone mono-acetate, or hexahydro-colupulone mono-butyrate, as shown in Table 5.
# The trial lasted for 30 days. The broilers were given free hand with feed and water and were fed twice a day. To calculate the average daily feed intake (ADFI, g/d per broiler), the average daily weigh gain (ADG, g/d per broiler) and the feed conversion ratio (FCR), the 31 days old broilers (12 hours without feed but water) of each replication as one unit were weighed, and the amount of the feed consumed thereby was counted. Feed conversion ratio (FCR)=average daily feed intake/average daily weight gain
# [3] = Thermal stability testing at 60° C. of ingredient and 1% premix (HPLC); type: physicochemical
# Experimental: as §1
# Thermal stability testing at 60° C.: The samples of an ingredient and 1% premix thereof were respectively spread in petri dishes to form thin layers of <5 mm, and kept at 60° C. Two replications for a sample were taken in parallel on day 5 and day 10 for HPLC analysis.
# as §2, §3
# [4] = 1% Premix of an ingredient (corncob meal), Day 5
# [5] = 1% Premix of an ingredient (corncob meal), Day 10
"Residual amount of active ingredient [1, 4]","Residual amount of active ingredient [1, 5]","Residual amount of active ingredient ([1]; Ingredient, Day 5)","Residual amount of active ingredient ([1]; Ingredient, Day 10)","Residual amount of active ingredient [3, 4]","Residual amount of active ingredient [3, 5]","Residual amount of active ingredient ([3]; Ingredient, Day 5)","Residual amount of active ingredient ([3]; Ingredient, Day 10)",Compound,ADFI (average daily feed intake) ([2]; 25 ppm in feed),ADG (average daily weight gain) ([2]; 25 ppm in feed),FCR (feed conversion ratio) ([2]; 25 ppm in feed),ADFI (average daily feed intake) (yellow broilers; 20 ppm in feed),ADG (average daily weight gain) (yellow broilers; 20 ppm in feed),FCR (feed conversion ratio) (yellow broilers; 20 ppm in feed),ADFI (average daily feed intake) ([2]; 5 ppm in feed),ADG (average daily weight gain) ([2]; 5 ppm in feed),FCR (feed conversion ratio) ([2]; 5 ppm in feed),ADFI (average daily feed intake) (yellow broilers; 2 ppm in feed),ADG (average daily weight gain) (yellow broilers; 2 ppm in feed),FCR (feed conversion ratio) (yellow broilers; 2 ppm in feed),also measured
90.11%,83.62%,92.71%,85.66%,97.02%,93.56%,99.76%,99.10%,"CC(C)CCC1=C(O)C(C(=O)C(C)C)=C(O)C(CCC(C)C)(CCC(C)C)C1=O [hexahydro-colupulone, reference compound]",894 g/d per piglet,403 g/d per piglet,2.218,49.68 g/d per broiler,25.19 g/d per broiler,1.97,–,–,–,–,–,–,"change of active ingredient ([1]; active ingredient of 1% premix, photostability testing, day 10): more than 15%; change of active ingredient ([3]; active ingredient of 1% premix, 10-day testing period): more than 5%"
99.14%,98.08%,99.99%,99.10%,98.21%,97.57%,99.76%,99.64%,CCCC(=O)OC1=C(CCC(C)C)C(=O)C(CCC(C)C)(CCC(C)C)C(O)=C1C(=O)C(C)C [hexahydro-colupulone mono-butyrate],973 g/d per piglet,441 g/d per piglet,2.205,49.95 g/d per broiler,25.88 g/d per broiler,1.93,991 g/d per piglet,447 g/d per piglet,2.217,48.32 g/d per broiler,24.65 g/d per broiler,1.96,effects on the production performance of broilers compared with hexahydro-colupulone (in words) (yellow broilers): equivalent
99.28%,98.82%,98.97%,98.31%,99.40%,98.68%,99.69%,99.44%,"CC(=O)OC1=C(CCC(C)C)C(=O)C(CCC(C)C)(CCC(C)C)C(O)=C1C(=O)C(C)C [hexahydro-colupulone mono-acetate, Hexahydro-Colupulone Mono-Acetate]",960 g/d per piglet,435 g/d per piglet,2.208,50.06 g/d per broiler,27.36 g/d per broiler,1.95,860 g/d per piglet,368 g/d per piglet,2.340,49.13 g/d per broiler,25.67 g/d per broiler,2.02,effects on the production performance of broilers compared with hexahydro-colupulone (in words) (yellow broilers): equivalent
